Laboratory results as given in PubChem BioAssay AID192 (DTP/NCI, 2004).
“And” between values parts separate entries of the source, which are not always exact repeats. Identical values can stand only once. Inconclusive results and toxic doses are left out.

System: BDF1 mice, B16 melanoma ip, median survival T/C
Assay: NCI In Vivo Anticancer Drug Screen. Data for tumor model B16 Melanoma (intraperitoneal) in B6D2F1 (BDF1) mice
Settings: endpoint: median survival time, higher = longer survival
Procedure: The antitumor activity of compounds was measured in mice bearing transplantable tumors. Survival or tumor size were measured and the results are expressed as the measurement made in the treated group (T) divided by the measurement made in the vehicle treated control group (C). The tumor model used in this assay is B16 Melanoma (intraperitoneal) in B6D2F1 (BDF1) mice

In the case of `COC(=O)C(CCCCN=Cc1ccccc1O)N=Cc1ccccc1O.[Ni]` (stereo not given), the T/C (dose: 6.25 mg/kg/injection, schedule: Q01DX009 (ip), vehicle: saline with Tween-80) was 100 % of control, the T/C (dose: 12.5 mg/kg/injection, schedule: Q01DX009 (ip), vehicle: saline with Tween-80) was 90 % of control and the T/C (dose: 12.5 mg/kg/injection, schedule: Q04DX003 (ip), vehicle: saline with Tween-80) was 95 % of control. For the same compound, the T/C (dose: 25.0 mg/kg/injection, schedule: Q01DX009 (ip), vehicle: saline with Tween-80) was 95 % of control and the T/C (dose: 25.0 mg/kg/injection, schedule: Q04DX003 (ip), vehicle: saline with Tween-80) was 93 % of control.
`COC12[C@@H]3N[C@@H]3CN1C1=C(C(=O)C(NCCSSCCNC3=C(C)C(=O)C4=C(C3=O)C(COC(N)=O)[C@]3(OC)C5N[C@@H]5CN43)=C(C)C1=O)[C@@H]2COC(N)=O` (stereo not given in full) was tested, and the T/C (dose: 0.2 mg/kg/injection, schedule: Q04DX003 (ip), vehicle: other) was 168 % of control, the T/C (dose: 0.4 mg/kg/injection, schedule: Q04DX003 (ip), vehicle: other) was 241 % of control and the T/C (dose: 0.8 mg/kg/injection, schedule: Q04DX003 (ip), vehicle: other) was 295 % of control. The T/C (dose: 1.5 mg/kg/injection, schedule: Q04DX003 (ip), vehicle: saline with Tween-80) was 184 % of control, the T/C (dose: 1.6 mg/kg/injection, schedule: Q04DX003 (ip), vehicle: other) was 295 % of control and the T/C (dose: 3.0 mg/kg/injection, schedule: Q04DX003 (ip), vehicle: saline with Tween-80) was 197 % of control. For the same compound, the T/C (dose: 3.2 mg/kg/injection, schedule: Q04DX003 (ip), vehicle: other) was 295 % of control, the T/C (dose: 6.0 mg/kg/injection, schedule: Q04DX003 (ip), vehicle: saline with Tween-80) was 288 % of control and the T/C (dose: 6.4 mg/kg/injection, schedule: Q04DX003 (ip), vehicle: other) was 295 % of control. The T/C (dose: 12.0 mg/kg/injection, schedule: Q04DX003 (ip), vehicle: saline with Tween-80) was 288 % of control.
For `Cc1cccc(CN)n1`, the T/C (dose: 50.0 mg/kg/injection, schedule: Q01DX009 (ip), vehicle: saline) was 105 % of control and the T/C (dose: 100.0 mg/kg/injection, schedule: Q01DX009 (ip), vehicle: saline) was 118 % of control.
In the case of `O=C(Nc1ccccc1Cl)Oc1ccccc1Cc1ccccc1`, the T/C (dose: 100.0 mg/kg/injection, schedule: Q04DX003 (ip), vehicle: Klucel (hydroxypropylcellulose) (HPC)) was 100 % of control, the T/C (dose: 200.0 mg/kg/injection, schedule: Q04DX003 (ip), vehicle: Klucel (hydroxypropylcellulose) (HPC)) was 106 % of control and the T/C (dose: 400.0 mg/kg/injection, schedule: Q04DX003 (ip), vehicle: Klucel (hydroxypropylcellulose) (HPC)) was 93 % of control.
In the case of `COc1ccc(C[C@H](N)C(=O)NC2C(CO)OC(n3cnc4c(N(C)C)ncnc43)C2O)cc1` (stereo not given in full), the T/C (dose: 4.0 mg/kg/injection, schedule: Q01DX009 (ip), vehicle: saline) was 114 % of control, the T/C (dose: 8.0 mg/kg/injection, schedule: Q01DX009 (ip), vehicle: saline) was 107 % of control and the T/C (dose: 16.0 mg/kg/injection, schedule: Q01DX009 (ip), vehicle: saline) was 109 % of control. For the same compound, the T/C (dose: 32.0 mg/kg/injection, schedule: Q01DX009 (ip), vehicle: saline) was 110 % of control and 114 % of control and the T/C (dose: 40.0 mg/kg/injection, schedule: Q01DX009 (ip), vehicle: saline) was 108 % of control.
With `O=C(Cc1ccccc1)NC/C=N/O` the T/C (dose: 50.0 mg/kg/injection, schedule: Q01DX009 (ip), vehicle: saline with Tween-80) was 107 % of control, the T/C (dose: 100.0 mg/kg/injection, schedule: Q01DX009 (ip), vehicle: saline with Tween-80) was 102 % of control and the T/C (dose: 200.0 mg/kg/injection, schedule: Q01DX009 (ip), vehicle: saline with Tween-80) was 93 % of control. The T/C (dose: 400.0 mg/kg/injection, schedule: Q01DX009 (ip), vehicle: saline with Tween-80) was 100 % of control.
For `CCC(C(=O)O)C(=O)O.[NH2-].[NH2-].[Pt+2]`, the T/C (dose: 8.0 mg/kg/injection, schedule: Q01DX009 (ip), vehicle: water) was 115 % of control, the T/C (dose: 12.5 mg/kg/injection, schedule: Q04DX003 (ip), vehicle: saline) was 108 % of control and 113 % of control and the T/C (dose: 16.0 mg/kg/injection, schedule: Q01DX009 (ip), vehicle: water) was 170 % of control. The T/C (dose: 25.0 mg/kg/injection, schedule: Q04DX003 (ip), vehicle: saline) was 170 % of control, the T/C (dose: 50.0 mg/kg/injection, schedule: Q04DX003 (ip), vehicle: saline) was 177 % of control and 219 % of control and the T/C (dose: 100.0 mg/kg/injection, schedule: Q04DX003 (ip), vehicle: saline) was 112 % of control and 247 % of control.
